From patent publication US20020058266A1, “EF-Tu protein encoded on the plastid DNA of the malaria parasite and protein synthesis inhibitors effective as anti-malarial compounds” (priority 1997, published 2002)
*1 amine or outer side, *2 acyl side, *3 side chain or, on linkers, in order; H or OH if unused. Where a SMILES comes first, the peptide text is derived from it. Bridges are numbered along the chain shown (N, C = ends). [ ]: non-standard residue; d: D form. The star is where a group is joined. X1 = NC1=N[C@@H]([C@H](N[*:1])C(=O)[*:2])C[C@H](O)N1; ΔAla(Z-3-ureido) = NC(=O)N/C=C(\N)C(=O)O; β3hOrn = NCCC[C@H](N)CC(=O)*; Dap = NC[C@H](N)C(=O)O

Experiments:
Corynebacterium spp = experiment: Parallel bioassay with a gram-positive bacterium; format: cell-based; details: parallel bioassays
Experimental: (§1) Kirromycin: Kirromycin-resistant forms of bacterial EF-Tu are modified at one of seven amino acids along the opposing interfaces of domains I and III (Mesters et al 1994 and Abdulkarim et al 1994) and Pf EF-Tupl has a substitution at one of these sites (A375S-E.coli numbers) that could potentially confer resistance to kirromycin. To test this possibility, kirromycin (Mocimycin), its methylated derivative Aurodox or its disaccharide derivative Efrotomycin were incubated with erythrocytic stages of P.falciparum grown in cultures over a 36 hr period. The incorporation of both ^3H-hypoxanthine and ^14C-isoleucine was inhibited in a dose-dependent fashion, maximum inhibition being achieved at 100 μM kirromycin (FIG. 5). […] Once maximal depression of incorporation had been reached at any particular dose of drug, residual incorporation continued at a uniform rate thereafter. Vital staining with rhodamine 123, a fluorescent dye that concentrates within the mitochondrion (Divo et al. 1985) confirmed the parasiticidal effect, loss of specific mt staining being evident within 2-3 hours (data not shown). […] Blood cultures of P.falciparum were about 10 times more sensitive to the antibiotic than a gram-positive bacterium (Corynebacterium spp) used in parallel bioassays.

P.falciparum [1] = experiment: Vital staining with rhodamine 123 (mitochondrial staining of parasites); format: cell-based, Plasmodium falciparum; details: data not shown
Experimental: as §1

P.chabaudi = experiment: Mice infected with P.chabaudi; format: in vivo; details: for development of the infection in mice: intraperitoneally 0.1 ml of 100 mM
Experimental: The solid line is for aurodox, the dotted line is for mocimycin and the dashed line is for no drug controls. The arrows on the x-axis indicate days on which three 0.1 ml 100 mM ip injections were given.
On the basis of these findings, preliminary studies were carried out on mice infected with P.chabaudi. In the first experiment, mice were infected and inoculated on the same day intraperitoneally with 0.1 ml of 100 mM Aurodox, a dose calculated to mimic the maximal inhibitory effect observed in vitro. […] In a single experiment.

P.falciparum [2] = experiment: Treatment of parasites, removal of antibiotic by washing and 2 weeks follow-up in vitro; format: cell-based, Plasmodium falciparum; details: 1 mM for 1.5 cell cycles, washing, follow-up for 2 weeks in vitro
[3] = test system: erythrocytic stages of P.falciparum; experiment: Incorporation of radiotracers (3H-hypoxanthine, 14C-isoleucine) by P.falciparum growing in blood cultures; format: cell-based, Plasmodium falciparum; details: for concentration at which maximum inhibition of radiotracer incorporation was achieved: cultures over a 36 hr period
Experimental: Antibiotics—Samples of Mocimycin (kirromycin), Aurodox (N-methylated kirromycin), and Efrotomycin (a glycoside of kirromycin) were used. Aurodox was dissolved in RPMI-Albumax medium (Grande et al 1977), kirromycin was dissolved in RPMI made alkaline by addition of 1M NaOH, and efrotomycin was dissolved in ethanol before dilution in culture medium. Enacyloxin IIA was dissolved in 1% NaHCO3 prior to dilution in RPMI-Albumax medium. The antibiotic GE2270A was dissolved in 100% DMSO before dilution in culture medium. Fusidic acid (Sigma) was dissolved directly in culture medium, and thiostrepton (Sigma) in 100% DMSO before dilution in culture medium. A hemisuccinate form of thiostrepton was prepared as a potassium salt, according to Bodanszky et al 1965. Incorporation of radiotracers by P.falciparum growing in blood cultures in the presence and absence of drugs was carried out as described (Strath et al 1993).
as §1

[4] = in vivo; cited from earlier work
[5] = biological target: T1, heterologously expressed Pf EF-Tupl (Plasmodium falciparum, UniProt Q25820); experiment: Band shift in native polyacrylamide gel with expressed Pf EF-Tupl; format: binding; details: 100 μM antibiotic, 100 μM GDP, native 12% polyacrylamide gel
T1 construct: one clone in JM109 contained the complete insert; GST (cleaved yes); made in house; host or cells: E. coli JM109 (pGEX)
Experimental: FIG. 13 contains immunoblots showing that binding of antibiotics modifies migration of EF-Tu.GDP in native polyacrylamide gels. Two segments of the same gel show A) heterologously expressed Pf EF-Tupl protein detected with a malaria peptide-specific antibody and B) E.coli EF-Tu detected with a specific antibody (Breidenbach et al 1990). Lanes without antibiotics (1 and 5), lanes with 100 μM antibiotic: GE2270A (2 and 6), enacyloxin lla (3 and 7), kirromycin (4 and 8). Arrows indicate uncomplexed EF-Tu.
Drug binding—Thiostrepton binding to short rRNA transcripts generated in vitro was assayed according to Ryan et al 1991, as modified by Clough et al 1997. […] Before […], samples were incubated on ice for 15 mins in 50 mM imidazole acetate (pH 7.6), 10 mM NH4Cl, 10 mM MgCl2, 1 mM […] and 100 μM GDP, in a final volume of 20 μl.
The material tufA gene in pGEX was expressed as an insoluble fusion protein in E.coli JM 109. The protein was detected either with antibodies to the GST tag or with antibodies to a specific peptide sequence in domain I ([…]) not found on E.coli EF-Tu. Washed inclusion bodies were dissolved and refolded by dilution (Lin et al 1991).

[6] = test system: Pf 28S cytosolic rRNA (cytosolic ribosomes); experiment: Puromycin shift of polysomes on sucrose gradients, cytosolic rRNA probe; format: biochemical, Plasmodium falciparum; details: 2 mM puromycin; anisomycin 3 mM pre-treatment
Experimental: (§2) Polysome preparation and puromycin shift—P.falciparum was grown in blood cultures (Trager et al 1976) and ribosomes prepared as described (Sherman et al 1975). Parasitized erythrocytes were lysed for 1 hr on ice in a buffer containing 0.14% Nonidet P-40 (Trade Name), 25 mM KCl, 10 mM MgCl2, 380 mM-sucrose, 6.5 mM β-mercaptoethanol and 50 mM Tris HCl, pH 7.6. The lysate was centrifuged×3 at 10,000 g for 10 min at 4° C. to remove genomic DNA and other cell debris before further centrifugation at 105,000 g for 1 hr in an SW40 rotor (Trade Name, Beckman) at 4° C. The resulting pellet was resuspended in 25 mM KCl, 5 mM MgCl2 and 50 mM Tris HCl (pH 7.6) and homogenized by hand (×50 strokes) with a glass dounce homogenizer (Wheatstone, USA). The suspension was centrifuged at 10,000 g for 10 min at 4° C. and the crude pellet discarded before further centrifugation for 2 hr at 105,000 g in an SW55 rotor (Beckman) at 4° C. The pellet was resuspended in 10 mM Tris HCl, 10 mM MgCl2, 100 mM KCl and homogenized again to give a suspension of ribosomes. […]
(§3) In an experiment with RNase (Cox 1969), total polysomes were incubated with a range of concentrations of RNase (1-13 ng ml^−1 ribosomes, Boehringer) prior to centrifugation for 30 min at 26° C. […] Hybridization signals were quantitated using a Molecular Dynamics phosphor imager. […]

[7] = test system: Pf 16S rRNApl (plastid ribosomes); experiment: Puromycin shift of polysomes on sucrose gradients, plastid rRNA probe; format: biochemical, Plasmodium falciparum; details: 2 mM puromycin; anisomycin 3 mM pre-treatment
Experimental: as §2, §3

eukaryotic cells = details: at 100 μM; cited from earlier work
[8] = 3H-hypoxanthine and 14C-isoleucine

T1 sequence (Q25820 whole entry): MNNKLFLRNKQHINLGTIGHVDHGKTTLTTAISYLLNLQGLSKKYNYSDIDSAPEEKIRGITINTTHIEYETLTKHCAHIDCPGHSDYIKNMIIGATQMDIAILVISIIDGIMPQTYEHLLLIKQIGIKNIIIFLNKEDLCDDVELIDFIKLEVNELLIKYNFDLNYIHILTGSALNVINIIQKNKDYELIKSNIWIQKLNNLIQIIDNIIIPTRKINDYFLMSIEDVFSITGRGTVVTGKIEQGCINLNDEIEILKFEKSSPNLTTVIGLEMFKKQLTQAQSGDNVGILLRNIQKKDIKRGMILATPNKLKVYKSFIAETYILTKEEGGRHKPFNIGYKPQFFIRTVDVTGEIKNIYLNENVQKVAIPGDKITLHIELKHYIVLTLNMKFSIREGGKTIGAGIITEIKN

## C/C=C\C=C\[C@@H]1O[C@](O)([C@H](CC)C(=O)NC/C=C/C=C(\C)[C@@H](OC)[C@@H](C)[C@@H]2O[C@H](/C=C/C=C/C=C(\C)C(=O)c3c(O)ccn(C)c3=O)[C@H](O)[C@@H]2O)[C@H](O)[C@H](O)C1(C)C [Aurodox, 1-methylmocimycin]
Corynebacterium spp
  sensitivity of P.falciparum blood cultures relative to Corynebacterium spp: about 10 times
P.falciparum [1]
  loss of specific mt staining evident, time: 2 to 3 h
P.chabaudi
  development of the infection in mice: lag in development of the infection compared with untreated controls
P.falciparum [2]
  parasite death or stasis: parasite death rather than stasis
[3]; synchronized cultures
  first inhibitory effects on ring stage parasites, time after exposure: as early as five hours
[3]; synchronized cultures, ring stage parasites
  inhibitory effects maximal, time of exposure: 10 h

## C/C=C/C=C/[C@@H]1O[C@](O)([C@H](CC)C(=O)NC/C=C/C=C(\C)[C@@H](OC)[C@@H](C)[C@@H]2O[C@H](/C=C/C=C/C=C(\C)C(=O)c3c(O)ccn(C)c3=O)[C@H](O)[C@@H]2O)[C@H](O)[C@H](O[C@@H]2O[C@H](C)[C@@H](O[C@@H]3O[C@@H](C)[C@H](OC)[C@@H](O)[C@H]3OC)[C@@H](OC)[C@H]2O)C1(C)C [Efrotomycin]
[4]
  oral absorption and plasma half-life: rapid oral absorption and prolonged plasma half-life

## CC/C=C/C(OC(N)=O)C(Cl)C(O)CC(=O)C(O)C(O)C(C)/C(Cl)=C/C=C/C=C(C)/C=C/C=C/C(=O)O[C@@H]1C[C@@H](C(=O)O)CC[C@@H]1O (some centres unmarked) [Enacyloxin IIa]
[5]
  mobility (Mr) of the GDP form of the EF-Tu complex: increased

## CC(=O)O[C@H]1C[C@@]2(C)[C@@H](C[C@@H](O)[C@H]3[C@@]4(C)CC[C@@H](O)[C@@H](C)[C@@H]4CC[C@@]32C)/C1=C(\CCC=C(C)C)C(=O)O [Fusidic acid]
P.chabaudi; even at toxic dose levels, preliminary experiments
  effect on parasitaemias in mice: little effect on parasitaemias
[3]; [8]
  concentration at which maximum inhibition of radiotracer incorporation was achieved: 200 µM

## CNC(=O)C[C@@H]1NC(=O)c2csc(n2)-c2ccc(-c3nc(C4=N[C@H](C(=O)N5CCC[C@H]5C(N)=O)CO4)cs3)nc2-c2csc(n2)-c2csc(n2)[C@H]([C@@H](O)c2ccccc2)NC(=O)CNC(=O)c2nc(sc2COC)[C@H](C(C)C)NC(=O)c2nc1sc2C [GE2270]
[5]
  mobility (Mr) of the GDP form of the EF-Tu complex: decreased
[3]; 3H-hypoxanthine and 14C-isoleucine, blood cultures
  inhibition of radiotracer incorporation in blood cultures, compared with other antibiotics: more inhibitory in blood cultures than either kirromycin or thiostrepton

## COc1ccc(C[C@H]2NC[C@H](O)[C@H]2OC(C)=O)cc1 [anisomycin]
[6]
  puromycin-shift of the hybridization signal, cytosolic rRNA: blocked the puromycin-induced shift

## COc1ccc(C[C@H](N)C(=O)N[C@H]2[C@@H](O)[C@H](n3cnc4c(N(C)C)ncnc43)O[C@@H]2CO)cc1 [puromycin]
[6]
  puromycin-shift of the hybridization signal, cytosolic rRNA: caused a shift
[7]
  puromycin-shift of the hybridization signal, plastid rRNA: caused a shift

## NCCC[C@H](N)CC(=O)N[C@H]1CNC(=O)[C@H]([C@H]2C[C@H](O)NC(N)=N2)NC(=O)/C(=C/NC(N)=O)NC(=O)[C@H](CO)NC(=O)[C@H](CO)NC1=O [viomycin] (β3hOrn-[Dap]SS[ΔAla(Z-3-ureido)][X1]; lactam 1-C)
[3]; data not shown
  effect on P.falciparum (specificity control): lack of effect

## kirromycin
[5]
  mobility (Mr) of the GDP form of the EF-Tu complex: increased
Eukaryotic cells
  effect on RNA, DNA and protein synthesis: blocks RNA synthesis without affecting DNA or protein synthesis
P.chabaudi
  development of the infection in mice: less effective in vivo than Aurodox
[3]; [8]
  concentration at which maximum inhibition of radiotracer incorporation was achieved: 100 µM
